“And” between values parts separate entries of the source, which are not always exact repeats. Equal values may be shown once. Inconclusive results and toxic doses are left out. The calls were made as follows: active = survival T/C of 150% or more; inactive = T/C below 125% in these data.
Tested on: BDF1 mice, B16 melanoma ip, median survival T/C
Experiment: NCI In Vivo Anticancer Drug Screen. Data for tumor model B16 Melanoma (intraperitoneal) in B6D2F1 (BDF1) mice
Settings: endpoint: median survival time, higher = longer survival
Summary of the method: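 Transplantable tumor model; survival or tumor size measured; reported as T/C, treated over vehicle control.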

[1] = dose: 25.0 mg/kg/injection, schedule: Q01DX009 (ip), vehicle: saline with Tween-80
[2] = dose: 25.0 mg/kg/injection, schedule: Q01DX009 (ip), vehicle: saline
[3] = dose: 50.0 mg/kg/injection, schedule: Q01DX009 (ip), vehicle: saline with Tween-80
[4] = dose: 50.0 mg/kg/injection, schedule: Q01DX009 (ip), vehicle: saline
[5] = dose: 100.0 mg/kg/injection, schedule: Q01DX009 (ip), vehicle: saline with Tween-80
[6] = dose: 100.0 mg/kg/injection, schedule: Q01DX009 (ip), vehicle: saline
[7] = dose: 200.0 mg/kg/injection, schedule: Q01DX009 (ip), vehicle: saline
[8] = dose: 200.0 mg/kg/injection, schedule: Q01DX009 (ip), vehicle: saline with Tween-80

Measured: T/C

CN(C)/N=N/c1nc[nH]c1C(N)=O
inactive: dose: 6.25 mg/kg/injection, schedule: Q01DX009 (ip), vehicle: saline 110 % of control | dose: 6.25 mg/kg/injection, schedule: Q01DX009 (ip), vehicle: steriod suspending solution 105 % of control | dose: 12.5 mg/kg/injection, schedule: Q01DX009 (ip), vehicle: carboxymethylcellulose (CMC) 121 % of control | dose: 12.5 mg/kg/injection, schedule: Q01DX009 (ip), vehicle: saline 115 % of control | dose: 12.5 mg/kg/injection, schedule: Q01DX009 (ip), vehicle: steriod suspending solution 107 % of control | dose: 13.0 mg/kg/injection, schedule: Q01DX009 (ip), vehicle: saline with Tween-80 114 % of control | dose: 18.75 mg/kg/injection, schedule: Q01DX009 (ip), vehicle: Klucel (hydroxypropylcellulose) (HPC) 101 % of control | dose: 18.8 mg/kg/injection, schedule: Q01DX009 (ip), vehicle: saline 105 % of control | dose: 18.8 mg/kg/injection, schedule: Q04DX005 (ip), vehicle: saline 94 % of control | dose: 25.0 mg/kg/injection, schedule: Q01DX009 (ip), vehicle: carboxymethylcellulose (CMC) 115 % of control | dose: 25.0 mg/kg/injection, schedule: Q01DX009 (ip), vehicle: distilled water + Tween-80 117 % of control | [1] 107 % of control | [2] 102 % of control and 110 % of control and 114 % of control | dose: 25.0 mg/kg/injection, schedule: Q01DX009 (ip), vehicle: steriod suspending solution 115 % of control | dose: 25.0 mg/kg/injection, schedule: Q01DX017 (ip), vehicle: saline 116 % of control | dose: 25.0 mg/kg/injection, schedule: Q04DX003 (ip), vehicle: saline with Tween-80 104 % of control and 105 % of control and 115 % of control | dose: 27.5 mg/kg/injection, schedule: Q01DX009 (ip), vehicle: saline 100 % of control | dose: 37.0 mg/kg/injection, schedule: Q01DX009 (ip), vehicle: saline with Tween-80 112 % of control | dose: 37.5 mg/kg/injection, schedule: Q04DX003 (ip), vehicle: saline 100 % of control | dose: 37.5 mg/kg/injection, schedule: Q04DX005 (ip), vehicle: saline 97 % of control | dose: 48.0 mg/kg/injection, schedule: Q01DX005 (ip), vehicle: Klucel (hydroxypropylcellulose) (HPC) 99 % of control | dose: 50.0 mg/kg/injection, schedule: Q01DX009 (ip), vehicle: carboxymethylcellulose (CMC) 110 % of control | [3] 124 % of control | [4] 105 % of control and 114 % of control and 121 % of control | dose: 50.0 mg/kg/injection, schedule: Q01DX009 (ip), vehicle: steriod suspending solution 115 % of control | dose: 50.0 mg/kg/injection, schedule: Q01DX017 (ip), vehicle: saline 114 % of control | dose: 50.0 mg/kg/injection, schedule: Q04DX003 (ip), vehicle: saline with Tween-80 115 % of control | dose: 72.0 mg/kg/injection, schedule: Q01DX005 (ip), vehicle: Klucel (hydroxypropylcellulose) (HPC) 101 % of control | dose: 75.0 mg/kg/injection, schedule: Q01DX001 (ip), vehicle: saline 114 % of control | dose: 75.0 mg/kg/injection, schedule: Q04DX003 (ip), vehicle: saline 107 % of control | dose: 75.0 mg/kg/injection, schedule: Q04DX005 (ip), vehicle: saline 107 % of control | dose: 100.0 mg/kg/injection, schedule: Q01DX009 (ip), vehicle: carboxymethylcellulose (CMC) 105 % of control | dose: 100.0 mg/kg/injection, schedule: Q01DX009 (ip), vehicle: distilled water + Tween-80 124 % of control | [5] 123 % of control | [6] 110 % of control (2×) and 119 % of control | dose: 100.0 mg/kg/injection, schedule: Q01DX009 (ip), vehicle: steriod suspending solution 115 % of control | dose: 100.0 mg/kg/injection, schedule: Q01DX017 (ip), vehicle: saline 123 % of control | dose: 108.0 mg/kg/injection, schedule: Q01DX005 (ip), vehicle: Klucel (hydroxypropylcellulose) (HPC) 98 % of control | dose: 130.0 mg/kg/injection, schedule: Q01DX009 (ip), vehicle: DMSO 105 % of control | dose: 148.0 mg/kg/injection, schedule: Q04DX003 (ip), vehicle: saline with Tween-80 110 % of control | dose: 150.0 mg/kg/injection, schedule: Q01DX001 (ip), vehicle: saline 112 % of control | dose: 150.0 mg/kg/injection, schedule: Q04DX003 (ip), vehicle: saline 112 % of control | dose: 160.0 mg/kg/injection, schedule: Q01DX005 (ip), vehicle: Klucel (hydroxypropylcellulose) (HPC) 101 % of control | dose: 166.7 mg/kg/injection, schedule: Q01DX009 (ip), vehicle: saline with Tween-80 77 % of control | dose: 200.0 mg/kg/injection, schedule: Q01DX009 (ip), vehicle: distilled water + Tween-80 121 % of control | [7] 117 % of control and 118 % of control | dose: 200.0 mg/kg/injection, schedule: Q04DX003 (ip), vehicle: saline with Tween-80 109 % of control | dose: 216.0 mg/kg/injection, schedule: Q01DX009 (ip), vehicle: DMSO 109 % of control | dose: 222.0 mg/kg/injection, schedule: Q04DX003 (ip), vehicle: saline with Tween-80 115 % of control | dose: 240.0 mg/kg/injection, schedule: Q01DX005 (ip), vehicle: Klucel (hydroxypropylcellulose) (HPC) 99 % of control | dose: 277.8 mg/kg/injection, schedule: Q01DX009 (ip), vehicle: saline with Tween-80 53 % of control | dose: 300.0 mg/kg/injection, schedule: Q01DX001 (ip), vehicle: saline 102 % of control | dose: 300.0 mg/kg/injection, schedule: Q04DX003 (ip), vehicle: saline 114 % of control | dose: 300.0 mg/kg/injection, schedule: Q04DX005 (ip), vehicle: saline 115 % of control | dose: 333.0 mg/kg/injection, schedule: Q04DX003 (ip), vehicle: saline with Tween-80 124 % of control | dose: 500.0 mg/kg/injection, schedule: Q04DX003 (ip), vehicle: saline with Tween-80 114 % of control | dose: 600.0 mg/kg/injection, schedule: Q01DX001 (ip), vehicle: saline 107 % of control | dose: 600.0 mg/kg/injection, schedule: Q04DX003 (ip), vehicle: saline 95 % of control | dose: 750.0 mg/kg/injection, schedule: Q04DX003 (ip), vehicle: saline with Tween-80 124 % of control | dose: 800.0 mg/kg/injection, schedule: Q04DX003 (ip), vehicle: saline with Tween-80 45 % of control | dose: 1200.0 mg/kg/injection, schedule: Q01DX001 (ip), vehicle: saline 117 % of control

O=C(O)/C=C\C(=O)Nc1ccccn1
inactive: dose: 5.0 mg/kg/injection, schedule: Q01DX009 (ip), vehicle: saline 100 % of control | dose: 10.0 mg/kg/injection, schedule: Q01DX009 (ip), vehicle: saline 100 % of control | dose: 30.0 mg/kg/injection, schedule: Q01DX009 (ip), vehicle: saline 112 % of control | dose: 60.0 mg/kg/injection, schedule: Q01DX009 (ip), vehicle: saline 109 % of control

CCCCCCCCCCCCCC[N+](C)(C)CC(=O)O
inactive: dose: 12.5 mg/kg/injection, schedule: Q01DX009 (ip), vehicle: saline with Tween-80 93 % of control | [1] 91 % of control | [3] 86 % of control

CC(C)COC(=O)c1ccc(NC(=O)Nc2ccccc2)cc1
inactive: [5] 93 % of control | [8] 102 % of control | dose: 400.0 mg/kg/injection, schedule: Q01DX009 (ip), vehicle: saline with Tween-80 97 % of control

O=C(O)COc1ccc([N+](=O)[O-])cc1
inactive: [5] 96 % of control | [8] 87 % of control

CC(N)CN(C)C (centres undefined)
inactive: [4] 101 % of control | [6] 102 % of control | [7] 93 % of control

O=NN(CCCl)C(=O)Nc1ccc2c3c(cccc13)-c1ccccc1-2
active: dose: 25.0 mg/kg/injection, schedule: Q01DX009 (ip), vehicle: Klucel (hydroxypropylcellulose) (HPC) 158 % of control and 175 % of control | dose: 50.0 mg/kg/injection, schedule: Q01DX009 (ip), vehicle: Klucel (hydroxypropylcellulose) (HPC) 170 % of control | dose: 100.0 mg/kg/injection, schedule: Q01DX009 (ip), vehicle: Klucel (hydroxypropylcellulose) (HPC) 150 % of control | dose: 200.0 mg/kg/injection, schedule: Q01DX009 (ip), vehicle: Klucel (hydroxypropylcellulose) (HPC) 150 % of control
inactive: dose: 1.56 mg/kg/injection, schedule: Q01DX009 (ip), vehicle: Klucel (hydroxypropylcellulose) (HPC) 111 % of control | dose: 3.12 mg/kg/injection, schedule: Q01DX009 (ip), vehicle: Klucel (hydroxypropylcellulose) (HPC) 124 % of control

CN1CCC=C(C(=O)N2c3ccccc3Sc3ccccc32)C1
inactive: [2] 102 % of control | [4] 96 % of control

Source: PubChem BioAssay AID192 (DTP/NCI, 2004)
